Test results published in patent US7045532B2 (Millennium Pharmaceuticals, Inc., priority 1999, dated 2006).
Like-named read-outs stand apart in the source and are kept apart here.

How the values were obtained:
ACE-2 [1] = target: T1, ACE-2 (Homo sapiens, UniProt Q9BYF1); assay: ACE-2 Competitive Substrate Assay (ACS Assay); format: biochemical
T1 construct: a stop codon inserted after the serine immediately preceding the transmembrane domain; made in house; host or cells: CHO K1 cells (transient transfection, purified from conditioned medium)

ACE-2 [2] = target: ACE-2 (Rattus norvegicus, UniProt Q5EGZ1); assay: ACE-2 Competitive Substrate Assay, rat ACE-2; format: biochemical; details: Ki class; compounds tested in 5% DMSO, 12 compound concentrations
Carboxypeptidase A = target: T2, Carboxypeptidase A (Bos taurus, UniProt P00730); assay: Carboxypeptidase A activity assay; format: biochemical; details: Ki class, compounds tested in 5% DMSO
T2 sequence (P00730 111-419): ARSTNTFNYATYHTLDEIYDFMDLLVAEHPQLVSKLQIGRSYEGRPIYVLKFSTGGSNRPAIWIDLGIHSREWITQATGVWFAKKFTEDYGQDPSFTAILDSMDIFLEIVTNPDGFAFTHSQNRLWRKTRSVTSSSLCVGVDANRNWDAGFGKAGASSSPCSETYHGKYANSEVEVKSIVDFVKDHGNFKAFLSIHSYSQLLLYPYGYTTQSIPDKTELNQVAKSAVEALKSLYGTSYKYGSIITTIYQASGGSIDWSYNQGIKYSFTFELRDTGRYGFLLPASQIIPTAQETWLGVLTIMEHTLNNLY
How it was run: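 Ki obtained by correcting apparent Ki for substrate, Ki=Kiapp/(1+[S]/Km), from 12-concentration series. Enzyme activity read by absorbance at 328 nm with 5% DMSO present, EDTA stop.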

ACE (Sigma, A2580) = target: T3, ACE (Sigma, A2580) (Sus scrofa, UniProt F1RRW5); assay: ACE enzymatic activity assay; format: biochemical, porcine; details: Ki class, compounds tested in 5% DMSO
T3 construct: ACE from porcine kidney; purchased Sigma A2580; host or cells: porcine kidney
T3 sequence (F1RRW5 34-1309): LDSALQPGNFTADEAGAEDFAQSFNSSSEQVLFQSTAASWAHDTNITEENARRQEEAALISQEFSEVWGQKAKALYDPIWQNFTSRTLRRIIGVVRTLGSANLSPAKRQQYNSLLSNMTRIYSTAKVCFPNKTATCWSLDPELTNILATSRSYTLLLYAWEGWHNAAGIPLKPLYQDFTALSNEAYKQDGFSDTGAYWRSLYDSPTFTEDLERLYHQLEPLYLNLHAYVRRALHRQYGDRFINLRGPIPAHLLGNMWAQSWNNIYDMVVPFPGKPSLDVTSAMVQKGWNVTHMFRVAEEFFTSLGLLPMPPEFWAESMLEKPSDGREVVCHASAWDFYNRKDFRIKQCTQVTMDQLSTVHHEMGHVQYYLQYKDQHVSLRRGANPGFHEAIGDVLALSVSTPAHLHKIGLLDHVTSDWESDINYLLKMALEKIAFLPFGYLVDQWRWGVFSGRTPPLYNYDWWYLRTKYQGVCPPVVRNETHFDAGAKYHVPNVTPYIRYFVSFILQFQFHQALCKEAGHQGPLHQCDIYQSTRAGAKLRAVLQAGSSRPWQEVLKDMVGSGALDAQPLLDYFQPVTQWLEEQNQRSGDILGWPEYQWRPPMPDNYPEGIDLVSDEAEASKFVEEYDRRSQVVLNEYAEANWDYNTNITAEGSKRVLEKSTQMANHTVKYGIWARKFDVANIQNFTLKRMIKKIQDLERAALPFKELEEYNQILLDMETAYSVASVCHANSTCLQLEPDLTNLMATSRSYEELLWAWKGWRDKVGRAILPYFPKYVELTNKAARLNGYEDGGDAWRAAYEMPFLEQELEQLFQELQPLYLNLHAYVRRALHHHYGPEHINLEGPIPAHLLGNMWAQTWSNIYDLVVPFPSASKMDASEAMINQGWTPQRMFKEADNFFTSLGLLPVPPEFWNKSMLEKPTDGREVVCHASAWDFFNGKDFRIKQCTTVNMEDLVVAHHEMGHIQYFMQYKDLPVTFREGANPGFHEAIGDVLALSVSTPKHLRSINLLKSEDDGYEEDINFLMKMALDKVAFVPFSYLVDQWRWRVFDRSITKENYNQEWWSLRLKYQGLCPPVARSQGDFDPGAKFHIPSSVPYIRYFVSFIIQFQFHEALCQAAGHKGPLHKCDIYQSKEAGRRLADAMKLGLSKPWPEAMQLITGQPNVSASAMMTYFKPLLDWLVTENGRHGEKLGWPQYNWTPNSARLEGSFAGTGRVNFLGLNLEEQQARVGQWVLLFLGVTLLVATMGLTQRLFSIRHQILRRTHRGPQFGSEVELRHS
How it was run: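 Fluorogenic substrate cleavage by 1 nM ACE, read at 320/405 nm after EDTA stop at ~30 min. Reactions at 25 °C, pH 7.5, in HEPES/NaCl/Brij-35 buffer; compounds tested at 12 concentrations in 5% DMSO.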

[3] = Ki class, compounds tested in 5% DMSO, 12 compound concentrations, Ki=Kiapp/(1+[S]/Km), read-out: Human ACE-2 Activity
[4] = Table 3, very good ACE-2 inhibiting compounds, species not given, read-out: ACE-2 Activity, Ki
[5] = Ki class, compounds tested in 5% DMSO, 12 concentrations, read-out: Human ACE-2 Activity

T1 sequence (Q9BYF1 18-740 limits assumed): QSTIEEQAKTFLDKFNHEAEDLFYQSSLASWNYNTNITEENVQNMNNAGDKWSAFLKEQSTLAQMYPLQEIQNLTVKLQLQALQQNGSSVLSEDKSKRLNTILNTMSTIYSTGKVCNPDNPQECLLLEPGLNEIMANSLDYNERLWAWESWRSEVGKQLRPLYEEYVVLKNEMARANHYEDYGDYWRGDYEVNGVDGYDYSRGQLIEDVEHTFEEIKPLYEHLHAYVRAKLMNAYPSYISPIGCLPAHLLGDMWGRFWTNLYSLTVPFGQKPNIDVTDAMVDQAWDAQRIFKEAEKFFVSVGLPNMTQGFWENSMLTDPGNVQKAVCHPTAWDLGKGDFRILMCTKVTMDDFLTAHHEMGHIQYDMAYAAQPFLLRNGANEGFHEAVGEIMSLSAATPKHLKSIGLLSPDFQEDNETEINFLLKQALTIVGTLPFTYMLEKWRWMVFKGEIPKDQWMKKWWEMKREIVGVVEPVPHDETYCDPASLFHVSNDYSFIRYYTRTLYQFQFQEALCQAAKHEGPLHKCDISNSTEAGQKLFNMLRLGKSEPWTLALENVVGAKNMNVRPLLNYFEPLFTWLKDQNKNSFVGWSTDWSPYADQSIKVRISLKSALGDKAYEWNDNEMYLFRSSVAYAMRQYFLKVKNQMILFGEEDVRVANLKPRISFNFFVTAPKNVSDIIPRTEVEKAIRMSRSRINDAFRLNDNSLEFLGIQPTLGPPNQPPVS
Sequence of ACE-2 (Rattus norvegicus, UniProt Q5EGZ1) (Q5EGZ1 18-805): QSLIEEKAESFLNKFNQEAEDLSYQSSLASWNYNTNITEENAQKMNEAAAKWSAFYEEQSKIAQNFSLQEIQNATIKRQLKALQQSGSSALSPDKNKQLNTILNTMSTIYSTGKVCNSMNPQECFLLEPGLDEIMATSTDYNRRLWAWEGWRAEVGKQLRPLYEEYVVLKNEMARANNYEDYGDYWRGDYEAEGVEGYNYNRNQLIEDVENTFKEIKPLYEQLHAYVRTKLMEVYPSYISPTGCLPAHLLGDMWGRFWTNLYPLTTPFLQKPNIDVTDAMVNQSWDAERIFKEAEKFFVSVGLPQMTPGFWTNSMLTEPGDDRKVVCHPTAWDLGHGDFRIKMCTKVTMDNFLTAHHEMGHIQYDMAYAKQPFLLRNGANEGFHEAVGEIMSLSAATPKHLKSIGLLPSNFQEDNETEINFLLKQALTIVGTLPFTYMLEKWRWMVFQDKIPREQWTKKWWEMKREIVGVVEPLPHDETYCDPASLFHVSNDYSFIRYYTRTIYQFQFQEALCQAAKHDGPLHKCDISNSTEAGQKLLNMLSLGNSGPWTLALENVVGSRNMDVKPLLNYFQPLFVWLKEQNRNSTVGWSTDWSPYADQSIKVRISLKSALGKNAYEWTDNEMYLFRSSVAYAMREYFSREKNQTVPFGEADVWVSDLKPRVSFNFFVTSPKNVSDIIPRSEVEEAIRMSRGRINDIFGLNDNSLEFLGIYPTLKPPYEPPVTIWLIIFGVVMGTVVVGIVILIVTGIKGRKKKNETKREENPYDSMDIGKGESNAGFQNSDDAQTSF

Structure (SMILES) | Ki (ACE-2 [1]; [3]) | Ki (ACE-2 [2]) | Ki (ACE-2 [1]; [4]) | Ki (ACE-2 [1]; [5]) | Ki (Carboxypeptidase A; 12 concentrations) | Ki (ACE (Sigma, A2580); 12 concentrations) | Ki (Carboxypeptidase A; 12 compound concentrations) | Ki (ACE (Sigma, A2580); 12 compound concentrations)
CC(=O)N(C(CCc1ccccc1)C(=O)O)[C@@H](CC(C)C)C(=O)O (single isomer, unassigned) [AT, 2-[Acetyl-(1-carboxy-3-phenyl-propyl)-amino]-4-methyl-pentanoic acid] |  |  |  | > 0.5 µM | > 50 µM | > 50 µM |  | 
CC(C)CC(NCC(C)C(=O)O)C(=O)O (centres unmarked) [CG, 2-(2-Carboxy-propylamino)-4-methyl-pentanoic acid] |  |  |  | > 0.5 µM | > 50 µM | > 50 µM |  | 
O=C(O)[C@H](CC1CCCCC1)N[C@@H](C(=O)O)c1ccccc1 [BP, 2-[(Carboxy-phenyl-methyl)-amino]-3-cyclohexyl-propionic acid] |  |  |  | > 0.5 µM | > 50 µM | > 50 µM |  | 
CCCC(N[C@H](Cc1c[nH]c2ccccc12)C(=O)O)C(=O)O (some centres unmarked) [X, 2-[1-Carboxy-2-(1H-indol-3-yl)-ethylamino]-pentanoic acid] |  |  |  | > 0.5 µM | > 50 µM | > 50 µM |  | 
CCCC(N[C@@H](CCSC)C(=O)O)C(=O)O (stereo in doubt) [AO, 2-(1-Carboxy-3-methylsulfanyl-propylamino)-pentanoic acid] |  |  |  | > 0.5 µM | > 50 µM | > 50 µM |  | 
CC(C)CC(NCCc1c[nH]cn1)C(=O)O (centres unmarked) [DZ, 2-[2-(1H-imidazol-4-yl)-ethylamino]-4-methyl-pentanoic acid] |  |  |  | > 0.5 µM | > 50 µM | > 50 µM |  | 
CCC(N[C@@H](Cc1c[nH]cn1)C(=O)O)C(=O)O (some centres unmarked) |  |  |  | > 0.5 µM | > 50 µM | > 50 µM |  | 
CCCCCCC(N[C@H](CCc1ccccc1)C(=O)O)C(=O)O (some centres unmarked) [CH, 2-(1-Carboxy-3-phenyl-propylamino)-octanoicacid] |  |  |  | > 0.5 µM | > 50 µM | > 50 µM |  | 
COC(=O)[C@H](CC(C)C)NC(=O)NCc1ccccc1 [DF, 2-(3-Benzyl-ureido)-4-methyl-pentanoic acidmethyl ester] |  |  |  | > 0.5 µM | > 50 µM | > 50 µM |  | 
O=C(O)C(CO)N[C@@H](CCc1ccccc1)C(=O)O (some centres unmarked) [AB, 2-(1-Carboxy-2-hydroxy-ethylamino)-4-phenyl-butync acid] |  |  |  | > 0.5 µM | > 50 µM | > 50 µM |  | 
CC(C)C[C@H](NCC(=O)c1ccccc1)C(=O)O [DW, 4-Methyl-2-(2-oxo-2-phenyl-ethylamino)-pentanoic acid] |  |  |  | > 0.5 µM | < 10 µM | > 50 µM |  | 
CCCCC(CC(=O)O)N[C@@H](Cc1c[nH]cn1)C(=O)O (single isomer, unassigned) [ES, 3-[1-Carboxy-2-(1H-imidazol-4-yl)-ethylamino]heptanoic acid] |  |  |  | > 0.5 µM | > 50 µM | > 50 µM |  | 
CSCC[C@H](NC(CC(C)C)C(=O)O)C(=O)O (some centres unmarked) [AN, 2-(1-Carboxy-3-methylsulfanyl-propylamino)-4-methyl-pentanoic acid] |  |  |  | > 0.5 µM | 10 to 50 µM | > 50 µM |  | 
CCC(NC(Cc1c[nH]c2ccccc12)C(=O)O)C(=O)O (centres unmarked) [W, 2-[1-Carboxy-2-(1H-indol-3-yl)-ethylamino]-butync acid] |  |  |  | > 0.5 µM | > 50 µM | > 50 µM |  | 
O=C(O)C(CCc1ccccc1)N1CCC[C@H]1C(=O)O (stereo in doubt) [AC, 1-(1-Carboxy-3-phenyl-propyl)-pyrrolidine-2-carboxylic acid] |  |  |  | > 0.5 µM | > 50 µM | > 50 µM |  | 

Results, then the compound that gave them:

Ki (ACE-2 [1]; [3]) | Ki (ACE-2 [2]) | Ki (ACE-2 [1]; [4]) | Ki (ACE-2 [1]; [5]) | Ki (Carboxypeptidase A; 12 concentrations) | Ki (ACE (Sigma, A2580); 12 concentrations) | Ki (Carboxypeptidase A; 12 compound concentrations) | Ki (ACE (Sigma, A2580); 12 compound concentrations) | Structure (SMILES)
< 0.1 µM | < 0.1 µM |  |  |  |  |  |  | CC(C)CC(N[C@@H](Cc1cncn1CCc1ccccc1)C(=O)O)C(=O)O (single isomer, unassigned) [JK, 2-[1-Carboxy-2-[3-phenethyl-3H-imidazol-4-yl)-ethylamino]-4-methyl-pentanoic acid]
< 0.1 µM | < 0.1 µM | < 0.05 µM |  |  |  |  |  | CC(C)CC(N[C@@H](Cc1cncn1Cc1cccc(I)c1)C(=O)O)C(=O)O (single isomer, unassigned) [JO, 2-[1-Carboxy-2-[3-(3-iodobenzyl)-3H-imidazol-4-yl]-ethylamino]-4-methyl-pentanoic acid]
0.1 to 0.5 µM | < 0.1 µM |  |  |  |  |  |  | CC(C)C[C@H](N[C@@H](Cc1ccn(Cc2ccccc2)n1)C(=O)O)C(=O)O [IN, (S,S)-2-[2-(1-benzyl-1H-pyrazol-3-yl)-1-carboxy-ethylamino]-4-methyl pentanoic acid]
< 0.1 µM | < 0.1 µM | < 0.05 µM |  |  |  |  |  | CC(C)CC(N[C@@H](Cc1cncn1Cc1cccc(C(F)(F)F)c1)C(=O)O)C(=O)O (single isomer, unassigned) [IZ, 2-[1-Carboxy-2-[3-(3-trifluoromethyl-benzyl)-3H-imidazol-4-yl]-ethylamino]4-methyl-pentanoic acid]
 |  |  | > 0.5 µM | > 50 µM | > 50 µM |  |  | CC(C)C[C@H](N[C@H](CCc1ccccc1)C(=O)O)C(N)=O [DC, 2-(1-Carbamoyl-3-methyl-butylamino)-4-phenyl-butync acid]
 |  |  | > 0.5 µM | > 50 µM | > 50 µM |  |  | CC(C)C[C@@H](N[C@H](Cc1cscn1)C(=O)O)C(=O)O [CO, 2-(1-Carboxy-2-thiazol-4-yl-ethylamino)-4-methyl-pentanoic acid]
 |  |  | > 0.5 µM | > 50 µM | > 50 µM |  |  | CC(C)CC(N[C@H](CCc1ccccc1)C(=O)O)C(=O)O (some centres unmarked) [CM, 2-(1-Carboxy-3-phenyl-propylamino)-4-methyl-pentanoic acid]
< 0.1 µM |  | 0.05 to 0.1 µM |  |  |  | < 10 µM | < 10 µM | CC(C)CC(N[C@@H](Cc1cncn1Cc1ccc(C(C)(C)C)cc1)C(=O)O)C(=O)O (single isomer, unassigned) [HY, 2-[2-[3-(4-tert-Butyl-benzyl)-3H-imidazol-4-yl]-1-carboxy-ethylamino)-4-methyl-pentanoic acid]
 |  |  | > 0.5 µM | > 50 µM | > 50 µM |  |  | CC(C)CC(N[C@H](CC(=O)O)Cc1cccs1)C(=O)O (some centres unmarked) [EI, 2-(1-Carboxymethyl-2-thiophen-2-yl-ethylamino)-4-methyl-pentanoic acid]
 |  |  | > 0.5 µM | > 50 µM | > 50 µM |  |  | CC(C)CC(N[C@@H](Cc1cncn1COCc1ccccc1)C(N)=O)C(=O)O (single isomer, unassigned) [FB, 2-[2-(3-Benzyloxymethyl-3H-imidazol-4-yl)-1-carbamoyl-ethylamino]-4-methyl-pentanoic acid]
 |  |  | > 0.5 µM | > 50 µM | > 50 µM |  |  | CC(C)CC(N[C@@H](Cc1c[nH]cn1)C(=O)O)C(=O)O (stereo in doubt) [AE, 2-[1-Carboxy-2-(1H-imidazol-4-yl)-ethylamino]4-methyl-pentanoic acid]
 |  |  | > 0.5 µM | > 50 µM | > 50 µM |  |  | CC(C)CC(NC(Cc1cccs1)C(=O)O)C(=O)O (centres unmarked) [AL, 2-(1-Carobxy-2-thiophen-2-yl-ethylamino)-4-methyl-pentanoic acid]
